± gives the uncertainty stated by the source.
Test: xn = mol fraction of the nth substance listed

CCCCCCCC(=O)O + CCCCCCCCCCCC(=O)O
100 kPa, x2 = 0.25
Details | viscosity [mPa·s]
293.15 K | 8.223 ± 0.19
298.15 K | 7.085 ± 0.16
303.15 K | 6.158 ± 0.14
308.15 K | 5.394 ± 0.12
313.15 K | 4.759 ± 0.11
318.15 K | 4.227 ± 0.096
323.15 K | 3.777 ± 0.086

OCCc1ccccc1 + c1ccccc1
293.15 K, 101.32 kPa
Details | viscosity [mPa·s]
x1 = 0.01771 | 0.6624 ± 0.13
x1 = 0.04031 | 0.6965 ± 0.14
x1 = 0.0739 | 0.7584 ± 0.15
x1 = 0.1095 | 0.8402 ± 0.17
x1 = 0.1585 | 0.985 ± 0.2

O=[PH2][O-].[Na+] + O
Details | viscosity [mPa·s]
298.15 K, 101 kPa, x1 = 0.2095 | 4.83 ± 0.13

Oc1ccccc1Cl + c1ccncc1
viscosity [mPa·s], 101 kPa
Details | 293.15 K | 303.15 K | 313.15 K
x1 = 0.07182 | 1.158 ± 0.011 | 0.994 ± 0.01 | 0.863 ± 0.009
x1 = 0.1451 | 1.459 ± 0.014 | 1.249 ± 0.012 | 1.073 ± 0.01
x1 = 0.2211 | 1.903 ± 0.019 | 1.588 ± 0.015 | 1.351 ± 0.013
x1 = 0.311 | 2.62 ± 0.026 | 2.152 ± 0.021 | 1.773 ± 0.017
x1 = 0.395 | 3.69 ± 0.04 | 2.96 ± 0.03 | 2.31 ± 0.023
x1 = 0.4815 | 5.28 ± 0.06 | 3.92 ± 0.04 | 2.98 ± 0.029
x1 = 0.5607 | 6.82 ± 0.08 | 4.72 ± 0.05 | 3.53 ± 0.04
x1 = 0.6186 | 7.8 ± 0.1 | 5.22 ± 0.06 | 3.78 ± 0.04
x1 = 0.6723 | 8.23 ± 0.11 | 5.4 ± 0.06 | 3.84 ± 0.04
x1 = 0.7248 | 8.16 ± 0.11 | 5.36 ± 0.06 | 3.78 ± 0.04
x1 = 0.7794 | 7.58 ± 0.1 | 5.04 ± 0.06 | 3.55 ± 0.04
x1 = 0.8837 | 5.97 ± 0.08 | 4.11 ± 0.05 | 2.94 ± 0.03

CCCCOC(C)=O + CC(C)O
viscosity [mPa·s], 100 kPa
Details | x1 = 0.081 | x1 = 0.1599 | x1 = 0.24 | x1 = 0.35 | x1 = 0.44 | x1 = 0.5601 | x1 = 0.65 | x1 = 0.74 | x1 = 0.85 | x1 = 0.9397
293.15 K | 1.638 ± 0.2 | 1.156 ± 0.14 | 0.884 ± 0.11 | 0.725 ± 0.087 | 0.688 ± 0.083 | 0.674 ± 0.081 | 0.686 ± 0.083 | 0.686 ± 0.083 | 0.703 ± 0.085 | 0.717 ± 0.086
298.15 K | 1.439 ± 0.17 | 1.038 ± 0.12 | 0.812 ± 0.098 | 0.684 ± 0.082 | 0.652 ± 0.078 | 0.648 ± 0.078 | 0.652 ± 0.078 | 0.652 ± 0.078 | 0.665 ± 0.08 | 0.673 ± 0.081
303.15 K | 1.256 ± 0.15 | 0.924 ± 0.11 | 0.747 ± 0.09 | 0.643 ± 0.077 | 0.608 ± 0.073 | 0.601 ± 0.072 | 0.608 ± 0.073 | 0.616 ± 0.074 | 0.629 ± 0.076 | 0.632 ± 0.076
308.15 K | 1.119 ± 0.14 | 0.847 ± 0.1 | 0.687 ± 0.083 | 0.592 ± 0.071 | 0.56 ± 0.07 | 0.557 ± 0.067 | 0.564 ± 0.068 | 0.564 ± 0.068 | 0.582 ± 0.07 | 0.584 ± 0.07
313.15 K | 0.972 ± 0.12 | 0.74 ± 0.09 | 0.613 ± 0.074 | 0.536 ± 0.065 | 0.516 ± 0.062 | 0.516 ± 0.062 | 0.522 ± 0.063 | 0.525 ± 0.063 | 0.531 ± 0.064 | 0.543 ± 0.065
318.15 K | 0.862 ± 0.1 | 0.658 ± 0.079 | 0.538 ± 0.065 | 0.482 ± 0.058 | 0.469 ± 0.057 | 0.474 ± 0.057 | 0.481 ± 0.058 | 0.487 ± 0.059 | 0.496 ± 0.06 | 0.502 ± 0.06
323.15 K | 0.759 ± 0.091 | 0.574 ± 0.069 | 0.469 ± 0.057 | 0.431 ± 0.052 | 0.428 ± 0.052 | 0.436 ± 0.053 | 0.443 ± 0.053 | 0.451 ± 0.054 | 0.457 ± 0.055 | 0.461 ± 0.056

CCCCOC(C)=O + CCCCCCCCCCCCCCCC
298.15 K, 101.3 kPa
Details | viscosity [mPa·s]
x1 = 0.0797 | 2.778 ± 0.025
x1 = 0.127 | 2.606 ± 0.024
x1 = 0.2518 | 2.227 ± 0.02
x1 = 0.3552 | 1.944 ± 0.017
x1 = 0.4446 | 1.716 ± 0.015
x1 = 0.5252 | 1.539 ± 0.013
x1 = 0.5544 | 1.484 ± 0.013
x1 = 0.594 | 1.39 ± 0.012
x1 = 0.7165 | 1.149 ± 0.01
x1 = 0.8169 | 0.9655 ± 0.0086
x1 = 0.8982 | 0.834 ± 0.0075
x1 = 0.952 | 0.7259 ± 0.0066

CCCN + CCCCOCCOCCO
298.15 K, 101 kPa
Details | viscosity [mPa·s]
x2 = 0.0104 | 0.381 ± 0.007
x2 = 0.0212 | 0.404 ± 0.007
x2 = 0.0381 | 0.44 ± 0.007
x2 = 0.0898 | 0.562 ± 0.008
x2 = 0.1063 | 0.602 ± 0.008
x2 = 0.129 | 0.668 ± 0.008
x2 = 0.164 | 0.78 ± 0.009
x2 = 0.1944 | 0.884 ± 0.009
x2 = 0.2231 | 1.003 ± 0.01
x2 = 0.2623 | 1.178 ± 0.011
x2 = 0.3079 | 1.4 ± 0.012
x2 = 0.327 | 1.505 ± 0.013
x2 = 0.3856 | 1.851 ± 0.015
x2 = 0.4114 | 2.011 ± 0.016
x2 = 0.4443 | 2.23 ± 0.017
x2 = 0.4782 | 2.46 ± 0.019
x2 = 0.5424 | 2.9 ± 0.022
x2 = 0.5729 | 3.115 ± 0.023
x2 = 0.6163 | 3.404 ± 0.026
x2 = 0.6419 | 3.571 ± 0.027
x2 = 0.6779 | 3.79 ± 0.028
x2 = 0.7205 | 4.031 ± 0.03
x2 = 0.7508 | 4.193 ± 0.031
x2 = 0.7957 | 4.402 ± 0.033
x2 = 0.8278 | 4.535 ± 0.034
x2 = 0.8577 | 4.647 ± 0.034
x2 = 0.8744 | 4.703 ± 0.035
x2 = 0.9181 | 4.837 ± 0.036
x2 = 0.9513 | 4.925 ± 0.036
x2 = 0.9752 | 4.986 ± 0.037

C=COC(C)=O + CCCCCCCCO
303.15 K, 101.33 kPa
Details | viscosity [mPa·s]
x1 = 0.1001 | 4.448 ± 0.026
x1 = 0.2008 | 3.155 ± 0.019
x1 = 0.3002 | 2.302 ± 0.014
x1 = 0.4017 | 1.705 ± 0.011
x1 = 0.4997 | 1.279 ± 0.008
x1 = 0.6008 | 0.965 ± 0.006
x1 = 0.6993 | 0.743 ± 0.005
x1 = 0.7981 | 0.577 ± 0.004
x1 = 0.8965 | 0.459 ± 0.004

CCCCCCCC(=O)O + c1ccccc1
298.15 K, 101 kPa
Details | viscosity [mPa·s]
x1 = 0.03 | 0.638 ± 0.017
x1 = 0.057 | 0.68 ± 0.018
x1 = 0.087 | 0.727 ± 0.019
x1 = 0.12 | 0.781 ± 0.021
x1 = 0.27 | 1.072 ± 0.028
x1 = 0.35 | 1.295 ± 0.034
x1 = 0.45 | 1.591 ± 0.042
x1 = 0.68 | 2.505 ± 0.065

CCCCOC(C)=O + CCC(C)=O
308 K, 101 kPa
Details | viscosity [mPa·s]
x1 = 0.0999 | 0.468 ± 0.2
x1 = 0.2002 | 0.484 ± 0.2
x1 = 0.3 | 0.52 ± 0.2
x1 = 0.4 | 0.533 ± 0.2
x1 = 0.4997 | 0.569 ± 0.2
x1 = 0.5997 | 0.584 ± 0.2
x1 = 0.7 | 0.606 ± 0.2
x1 = 0.7997 | 0.642 ± 0.2
x1 = 0.9004 | 0.669 ± 0.2

Oc1ccccc1Cl + CC(C)CO
Details | viscosity [mPa·s]
303.15 K, 101 kPa, x1 = 0.3796 | 5.333 ± 2.4

CCCCOC(C)=O + CCCCCCCCCC
298.15 K, 101.3 kPa
Details | viscosity [mPa·s]
x1 = 0.3547 | 0.7515 ± 0.0068
x1 = 0.4366 | 0.7352 ± 0.0067
x1 = 0.5375 | 0.7168 ± 0.0065
x1 = 0.6473 | 0.7018 ± 0.0064
x1 = 0.7119 | 0.6958 ± 0.0063
x1 = 0.8212 | 0.6854 ± 0.0063
x1 = 0.9331 | 0.6851 ± 0.0062

CCCN + CCCCN(CCCC)CCCC
303.15 K, 101 kPa
Details | viscosity [mPa·s]
x2 = 0.2025 | 0.5088 ± 0.0057
x2 = 0.4055 | 0.6949 ± 0.0067
x2 = 0.4953 | 0.7795 ± 0.0072
x2 = 0.603 | 0.8793 ± 0.0078
x2 = 0.7931 | 1.04 ± 0.0088

CC(C)c1ccccc1 + c1ccccc1
Details | viscosity [mPa·s]
293.15 K, 101.33 kPa, x2 = 0.3728 | 0.721 ± 0.013
293.15 K, 101.33 kPa, x2 = 0.5889 | 0.693 ± 0.0096
293.15 K, 101.33 kPa, x2 = 0.8176 | 0.66 ± 0.0068
293.15 K, 101.33 kPa, x2 = 0.9057 | 0.653 ± 0.0062
303.15 K, 101.3 kPa, x2 = 0.1245 | 0.6683 ± 0.0056
303.15 K, 101.3 kPa, x2 = 0.2644 | 0.6483 ± 0.0055
303.15 K, 101.3 kPa, x2 = 0.4246 | 0.6265 ± 0.0054
303.15 K, 101.3 kPa, x2 = 0.5391 | 0.6111 ± 0.0053
303.15 K, 101.3 kPa, x2 = 0.5606 | 0.6069 ± 0.0052
303.15 K, 101.3 kPa, x2 = 0.6382 | 0.5972 ± 0.0052
303.15 K, 101.3 kPa, x2 = 0.6478 | 0.5958 ± 0.0052
303.15 K, 101.3 kPa, x2 = 0.7409 | 0.5819 ± 0.0051
303.15 K, 101.3 kPa, x2 = 0.831 | 0.5721 ± 0.005
303.15 K, 101.3 kPa, x2 = 0.919 | 0.5634 ± 0.0049
303.15 K, 101.33 kPa, x2 = 0.3728 | 0.63 ± 0.011
303.15 K, 101.33 kPa, x2 = 0.5889 | 0.607 ± 0.0084
303.15 K, 101.33 kPa, x2 = 0.8176 | 0.575 ± 0.006
303.15 K, 101.33 kPa, x2 = 0.9057 | 0.563 ± 0.0054
313.15 K, 101.33 kPa, x2 = 0.3728 | 0.56 ± 0.01
313.15 K, 101.33 kPa, x2 = 0.5889 | 0.537 ± 0.0075
313.15 K, 101.33 kPa, x2 = 0.8176 | 0.512 ± 0.0054
313.15 K, 101.33 kPa, x2 = 0.9057 | 0.496 ± 0.0048
323.15 K, 101.33 kPa, x2 = 0.3728 | 0.499 ± 0.0092
323.15 K, 101.33 kPa, x2 = 0.5889 | 0.479 ± 0.0068
323.15 K, 101.33 kPa, x2 = 0.8176 | 0.454 ± 0.0049
323.15 K, 101.33 kPa, x2 = 0.9057 | 0.441 ± 0.0044
